The source of these data is ChEMBL document CHEMBL5727613, “Benzimidazolone and benzothiazolone compounds and their use as AMPA receptor modulators” (2020).

The IC50 is the midpoint of a concentration-inhibition curve.

The nature of this assay: Calcium Flux Assay: This assay was used to test compounds for their ability to inhibit TARP γ8 dependent AMPA receptor activity. The AMPA receptor is a non-selective cation channel activated by glutamate. lonotropic glutamate receptors normally desensitize too rapidly to allow detectable calcium influx in a FLIPR assay (Strange et al. (2006). “Functional characterisation of homomeric ionotropic glutamate receptors GluR1-GluR6 in a fluorescence-based high throughput screening assay.” Comb Chem High Throughput Screen 9(2): 147-158). But, this desensitization is incomplete, and a substantial steady-state current remains in the sustained presence of glutamate (Cho et al. (2007). “Two families of TARP isoforms that have distinct effects on the kinetic properties of AMPA receptors and synaptic currents.” Neuron 55(6): 890-904).An in vitro assay was used to determine the potency of test compounds as inhibitors of the glutamate response of the channel formed by GluA1o-g8. To ensure a 1:1 stoichiometry of GluA1o and g8 subunits in the expressed channel, a fusion of the cDNAs for GRIA1o and CACNG8 was used. Channels expressed with this construct appear to have similar properties to channels formed by co-expression of GRIA1o with an excess of CACNG8 (Shi et al. 2009). A clonal cell line in HEK293 cells stably expressing this construct, with a geneticin selection marker, was generated for use in this assay. Cell expressing the GRIAlo-CACNG8 fusion construct were grown in a monolayer in 96- or 384-well microtiter plates. They were washed with assay buffer (135 mM NaCl, 4 mM KCl, 3 mM CaCl2), 1 mM MgCl2, 5 mM glucose, 10 mM HEPES, pH 7.4, 300 mOs) using a Biotek EL405 plate washer. The cells were then loaded with a calcium-sensitive dye (Calcium-5 or Calcium-6, Molecular Devices) and the test compounds at a range of concentrations. Calcium flux following the addition of 15 μM glutamate was monitored using a Molecular Devices FLIPR Tetra.The fluorescence in each well was normalized to the fluorescence of negative and positive control wells. […]. For orientation: Calcium flux is commonly read through the fluorescence of an indicator in the cells.
Turning to `Cc1cccc(C)c1-c1ccc2[nH]c(=O)[nH]c2c1`, the IC50 is 158 nM.

For the molecule `O=c1[nH]c2ccc(-c3c(Cl)cccc3OC(F)(F)F)cc2s1`, the IC50 turned out to be 2.51 nM.

`O=c1[nH]c2ccc(-c3c(Cl)cccc3C3CC3)cc2[nH]1`: the IC50 is 6.31 nM.
